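The compound was tested at five concentrations on cells cultured in 96-well plates, with a 48-hour exposure period. GI50 is the concentration that inhibits growth by half. TGI is the concentration that stops growth completely.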
Tests used:
Experiment in all cases: NCI tumour cell line growth inhibition, 48 h
DU-145 prostate = tested on: DU-145 prostate
TK-10 renal = tested on: TK-10 renal
SNB-19 CNS = tested on: SNB-19 CNS
CAKI-1 renal = tested on: CAKI-1 renal
SK-MEL-28 melanoma = tested on: SK-MEL-28 melanoma
MDA-MB-435 = tested on: MDA-MB-435
SF-539 CNS = tested on: SF-539 CNS
HCT-116 colon = tested on: HCT-116 colon
BT-549 breast = tested on: BT-549 breast
MALME-3M melanoma = tested on: MALME-3M melanoma

Compound	TGI (DU-145 prostate) [µM]	TGI (TK-10 renal) [µM]	TGI (SNB-19 CNS) [µM]	TGI (CAKI-1 renal) [µM]	TGI (SK-MEL-28 melanoma) [µM]	TGI (MDA-MB-435) [µM]	TGI (SF-539 CNS) [µM]	TGI (HCT-116 colon) [µM]	TGI (BT-549 breast) [µM]	TGI (MALME-3M melanoma) [µM]	GI50 (DU-145 prostate) [µM]	GI50 (TK-10 renal) [µM]	GI50 (SNB-19 CNS) [µM]	GI50 (CAKI-1 renal) [µM]	GI50 (SK-MEL-28 melanoma) [µM]	GI50 (MDA-MB-435) [µM]	GI50 (SF-539 CNS) [µM]	GI50 (BT-549 breast) [µM]	GI50 (MALME-3M melanoma) [µM]
[N-]=[N+]=NC(c1ccccc1)(c1ccccc1)c1ccccc1	36.1	32.4	39.5	46.7	37.8	44	31	30.2	37.7	29.5	–	–	–	–	–	–	–	–	–
CC(C)=CCC[C@@H](C)c1c(O)c(O)c(C)c2nccnc12	> 100	> 100	> 100	> 90.3	> 100	> 100	60.2	> 100	> 100	66.7	–	–	–	–	–	–	–	–	–
Cc1ccnc(NS(=O)(=O)c2ccc(N=[N+]=[N-])cc2)n1	> 100	> 100	> 100	> 100	> 100	> 100	> 100	> 100	> 100	> 100	–	–	–	–	–	–	–	–	–
Nc1nc2c(c(-c3cccc(Cl)c3)n1)COC/C2=C\c1cccc(Cl)c1	> 100	> 100	> 100	> 100	> 100	> 100	> 100	> 100	> 100	81.9	–	–	–	–	–	–	–	–	–
C#CCn1c(=O)c2ccccc2n(CC#C)c1=O	> 10	> 10	> 10	> 10	> 10	> 10	> 10	> 10	–	> 10	–	–	–	–	–	–	–	–	–
Oc1ccccc1CNCc1nc2ccccc2[nH]1	> 100	> 100	> 100	> 100	> 100	> 100	> 100	> 100	> 100	–	–	–	–	–	–	–	–	–	–
CCOC(=O)Nc1sc2c(c1C#N)CCCC2	> 100	> 100	> 100	> 100	> 100	> 100	–	> 100	> 100	> 100	–	–	–	–	–	–	–	–	–
Nn1c(-c2ccccc2)n[nH]c1=O	> 100	> 100	> 100	> 100	> 100	> 100	> 100	> 100	> 100	> 100	–	–	–	–	–	–	–	–	–
O=C1c2cc3c(cc2-c2c1c1ccc(F)cc1c(=O)n2C[C@H](O)[C@@H](O)[C@H](O)CO)OCO3	1.99	0.858	3.01	0.371	0.765	0.279	0.138	–	0.492	0.565	0.0513	0.262	0.0513	0.0383	0.195	0.112	0.0289	0.0687	0.185
Nn1c(Nc2ccc(S(=O)(=O)Nc3ncccn3)cc2)nnc(/C=C/c2c(O)ccc3ccccc23)c1=O	> 100	75.8	> 100	89.9	–	69.4	–	51.1	60	75.8	–	–	–	–	–	–	–	–	–
COc1ncc(/C=C2\OC(=O)c3ccccc32)c(OC)n1	> 100	> 100	> 100	36.8	> 100	> 100	> 100	> 100	10.9	> 100	–	–	–	–	–	–	–	–	–
COC(=O)[C@@H](O)[C@](O)(CCC(C)C)C(=O)O[C@@H]1C(OC)=C[C@]23CCCN2CCc2cc4c(cc2[C@H]13)OCO4	–	–	2.67	7.36	2.78	–	3.16	2.57	–	1.94	–	–	–	–	–	–	–	–	–
CC1(C(=O)O)CCC2(C)CCC3(C)C(=CC(=O)C4C5(C)CCC(O)C(C)(C)C5CCC43C)C2C1 (stereo not given)	77.3	> 100	> 100	> 100	52.4	> 100	32.5	63	42.3	> 100	–	–	–	–	–	–	–	–	–
Cc1ccc(NC(=O)CC2Sc3ccccc3NC2=O)cc1C (stereo not given)	–	> 100	> 100	> 100	> 100	–	> 100	> 100	–	> 100	–	–	–	–	–	–	–	–	–
CC(=O)N1C(C(=O)NC2CCCCC2)CSC1c1ccccc1 (stereo not given)	> 100	> 100	> 100	> 100	–	> 100	> 100	> 100	> 100	> 100	–	–	–	–	–	–	–	–	–
CCN(CC)CCNC(=O)c1cc2cc(NC(=O)c3cc4cc([N+](=O)[O-])ccc4[nH]3)ccc2[nH]1	31.8	48.6	> 100	> 100	66.8	> 100	> 49.7	> 100	> 100	–	–	–	–	–	–	–	–	–	–
Nc1nc(SCCC/C=C/I)nc2c1ncn2C1OC(COP(=O)(O)O)C(O)C1O (stereo not given)	–	> 100	> 100	–	> 100	–	> 100	> 100	–	> 100	–	–	–	–	–	–	–	–	–
C=CC1(CC/C(=C\[N+](=O)[O-])c2ccc(OC)c(OC)c2)OCC(C)(C)CO1	33.1	34.6	35.7	52.9	50.3	56.3	–	71.9	31.1	45.5	–	–	–	–	–	–	–	–	–
CCC(=O)NC(Nc1cc(C)on1)(C(F)(F)F)C(F)(F)F	> 100	> 100	> 100	> 100	> 100	> 100	> 100	> 100	> 100	> 100	–	–	–	–	–	–	–	–	–
O=[N+]([O-])c1ccc2[nH]nc(OCc3ccccc3Cl)c2c1	> 100	61.3	> 100	> 100	> 100	> 100	50.9	74.7	–	> 100	–	–	–	–	–	–	–	–	–
O=C(C1OC1c1ccc(Br)cc1O)C12CC3CC(CC(C3)C1)C2 (stereo not given)	> 100	> 100	> 100	–	46.8	30.4	> 100	30.9	–	42.1	–	–	–	–	–	–	–	–	–
O=C(N/N=C/c1ccc(Cl)cc1)c1c(Cl)c(Cl)c(Cl)c(Cl)c1-c1nc2ccccc2[nH]1	> 100	–	> 100	> 100	> 100	> 100	> 100	> 100	> 100	> 100	–	–	–	–	–	–	–	–	–
